# Experimental data as given in patent publication US10952433B2, “Solutions for enhancing the effectiveness of insecticides and fungicides on living plants and related methods” (priority 2015, dated 2021).
# Like-named read-outs stand apart in the source and are kept apart here.
# Key:
# [1] = system: lepidopteran larvae: cabbage loopers (Trichoplusia ni) and beet armyworms (Spodoptera exigua); type: in vivo; details: leaf discs
# Summary of the method: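 Romaine lettuce leaf discs (⅝ inch) dipped about one second in treatment solution and infested with four cabbage loopers and four beet armyworms (3rd-4th instar) per container. Held dark at 15 °C, 80% RH; percent disc-area damage scored visually in 5% increments at 24, 48 and 72 h.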
# [2] = system: lepidopteran larvae: cabbage loopers (Trichoplusia ni) and beet armyworms (Spodoptera exigua); type: in vivo; details: plants
# Summary of the method: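 Romaine lettuce plants 2-3 inches tall were sprayed with 10 mL of insecticide (ppm) with buffer, amine oxide or buffered amine oxide at 200:1, then infested with 15 T. ni and 15 S. exigua larvae (5th-6th instar) per container. Leaf surface damage scored visually in 5% increments after 24 h.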
# [3] = insecticide + CO3 buffer 200:1, no amine oxide, PPM: Chlorantranilopril 60, Acephate 70, Methoxyfenozide 100, Spinosad 30, Permethrin 10, Indoxacarb 50
# [4] = insecticide + PO4 buffer 200:1, no amine oxide, PPM: Chlorantranilopril 60, Acephate 70, Methoxyfenozide 100, Spinosad 30, Permethrin 10, Indoxacarb 50
# [5] = insecticide + amine oxide 12, no buffer, 200:1, PPM: Chlorantranilopril 60, Acephate 70, Methoxyfenozide 100, Spinosad 30, Permethrin 10, Indoxacarb 50
# [6] = insecticide + amine oxide 1218, no buffer, 200:1, PPM: Chlorantranilopril 60, Acephate 70, Methoxyfenozide 100, Spinosad 30, Permethrin 10, Indoxacarb 50
# [7] = insecticide + buffered amine oxide system CO3, 12, 200:1, PPM: Chlorantranilopril 60, Acephate 70, Methoxyfenozide 100, Spinosad 30, Permethrin 10, Indoxacarb 50
# [8] = insecticide + buffered amine oxide system CO3, 1218, 200:1, PPM: Chlorantranilopril 60, Acephate 70, Methoxyfenozide 100, Spinosad 30, Permethrin 10, Indoxacarb 50
# [9] = insecticide + buffered amine oxide system PO4, 12, 200:1, PPM: Chlorantranilopril 60, Acephate 70, Methoxyfenozide 100, Spinosad 30, Permethrin 10, Indoxacarb 50
# [10] = insecticide + buffered amine oxide system PO4, 1218, 200:1, PPM: Chlorantranilopril 60, Acephate 70, Methoxyfenozide 100, Spinosad 30, Permethrin 10, Indoxacarb 50
# [11] = insecticide alone, highest, PPM: Chlorantranilopril 120, Acephate 140, Methoxyfenozide 200, Spinosad 60, Permethrin 20, Indoxacarb 100
# [12] = insecticide alone, increased, PPM: Chlorantranilopril 90, Acephate 105, Methoxyfenozide 150, Spinosad 45, Permethrin 15, Indoxacarb 75
# [13] = insecticide alone, PPM: Chlorantranilopril 60, Acephate 70, Methoxyfenozide 100, Spinosad 30, Permethrin 10, Indoxacarb 50
substance,measurement,setting,value
Spinosad,Percent Lepidopteran Damage to Romaine Lettuce 24 hr,[1]; [3],25.5%
same,Percent Lepidopteran Damage to Romaine Lettuce 24 hr,[1]; [4],20.0%
same,Percent Lepidopteran Damage to Romaine Lettuce 24 hr,[1]; [5],30.5%
same,Percent Lepidopteran Damage to Romaine Lettuce 24 hr,[1]; [6],15.0%
same,Percent Lepidopteran Damage to Romaine Lettuce 24 hr,[1]; [7],14.0%
same,Percent Lepidopteran Damage to Romaine Lettuce 24 hr,[1]; [8],10.5%
same,Percent Lepidopteran Damage to Romaine Lettuce 24 hr,[1]; [9],6.5%
same,Percent Lepidopteran Damage to Romaine Lettuce 24 hr,[1]; [10],13.0%
same,Percent Lepidopteran Damage to Romaine Lettuce 24 hr,[1]; [11],24.5%
same,Percent Lepidopteran Damage to Romaine Lettuce 24 hr,[1]; [12],12.0%
same,Percent Lepidopteran Damage to Romaine Lettuce 24 hr,[1]; [13],19.0%
same,Percent Lepidopteran Damage to Romaine Lettuce 48 hr,[1]; [3],28.0%
same,Percent Lepidopteran Damage to Romaine Lettuce 48 hr,[1]; [4],28.5%
same,Percent Lepidopteran Damage to Romaine Lettuce 48 hr,[1]; [5],35.5%
same,Percent Lepidopteran Damage to Romaine Lettuce 48 hr,[1]; [6],21.0%
same,Percent Lepidopteran Damage to Romaine Lettuce 48 hr,[1]; [7],38.0%
same,Percent Lepidopteran Damage to Romaine Lettuce 48 hr,[1]; [8],29.5%
same,Percent Lepidopteran Damage to Romaine Lettuce 48 hr,[1]; [9],18.5%
same,Percent Lepidopteran Damage to Romaine Lettuce 48 hr,[1]; [10],22.0%
same,Percent Lepidopteran Damage to Romaine Lettuce 48 hr,[1]; [11],34.5%
same,Percent Lepidopteran Damage to Romaine Lettuce 48 hr,[1]; [12],23.5%
same,Percent Lepidopteran Damage to Romaine Lettuce 48 hr,[1]; [13],26.5%
same,Percent Lepidopteran Damage to Romaine Lettuce 72 hr,[1]; [3],29.0%
same,Percent Lepidopteran Damage to Romaine Lettuce 72 hr,[1]; [4],33.0%
same,Percent Lepidopteran Damage to Romaine Lettuce 72 hr,[1]; [5],36.0%
same,Percent Lepidopteran Damage to Romaine Lettuce 72 hr,[1]; [6],28.0%
same,Percent Lepidopteran Damage to Romaine Lettuce 72 hr,[1]; [7],49.5%
same,Percent Lepidopteran Damage to Romaine Lettuce 72 hr,[1]; [8],35.5%
same,Percent Lepidopteran Damage to Romaine Lettuce 72 hr,[1]; [9],24.0%
same,Percent Lepidopteran Damage to Romaine Lettuce 72 hr,[1]; [10],29.5%
same,Percent Lepidopteran Damage to Romaine Lettuce 72 hr,[1]; [11],36.5%
same,Percent Lepidopteran Damage to Romaine Lettuce 72 hr,[1]; [12],36.0%
same,Percent Lepidopteran Damage to Romaine Lettuce 72 hr,[1]; [13],59.0%
same,Percent Lepidopteran Damage to Romaine Lettuce 24 hr,[2]; [3],17.0%
same,Percent Lepidopteran Damage to Romaine Lettuce 24 hr,[2]; [4],20.5%
same,Percent Lepidopteran Damage to Romaine Lettuce 24 hr,[2]; [5],24.5%
same,Percent Lepidopteran Damage to Romaine Lettuce 24 hr,[2]; [6],22.5%
same,Percent Lepidopteran Damage to Romaine Lettuce 24 hr,[2]; [7],12.5%
same,Percent Lepidopteran Damage to Romaine Lettuce 24 hr,[2]; [8],9.5%
same,Percent Lepidopteran Damage to Romaine Lettuce 24 hr,[2]; [9],10.0%
same,Percent Lepidopteran Damage to Romaine Lettuce 24 hr,[2]; [10],6.5%
same,Percent Lepidopteran Damage to Romaine Lettuce 24 hr,[2]; [11],19.0%
same,Percent Lepidopteran Damage to Romaine Lettuce 24 hr,[2]; [12],17.0%
same,Percent Lepidopteran Damage to Romaine Lettuce 24 hr,[2]; [13],28.5%
